Columns and labels:
Experiment in all cases: KinaseProfiler off-target kinase profiling
Assay type in all cases: biochemical
Conditions in all cases: 10 μM, ATP near Km
[1] = biological target: ROCK-I (Homo sapiens (Human), UniProt Q13464)
Experimental: (§1) Representative compounds (Examples 12, 32, 26 and 2) of the invention were tested for off-target kinase activity at a concentration of 10 μM by Millipore, Inc. in their KinaseProfiler™ service against all the kinases available in their full kinase panel. Compounds were run in duplicate at a concentration of ATP near the Km for each individual kinase according to Millipore's specifications. The results are shown in Table B. Data are reported as percent of control (POC) and are the average of the two replicates.

[2] = biological target: NLK (Homo sapiens (Human), UniProt Q9UBE8)
Experimental: as §1

[3] = biological target: ERK2 (Homo sapiens (Human), UniProt P28482)
Experimental: as §1

[4] = biological target: mTOR/FKBP12 (Homo sapiens (Human), UniProt P42345)
Experimental: as §1

[5] = biological target: PKCtheta (Homo sapiens (Human), UniProt Q04759)
Experimental: as §1

[6] = biological target: MST1 (Homo sapiens (Human), UniProt Q13043)
Experimental: as §1

[7] = biological target: MAP3K5 (Homo sapiens (Human), UniProt Q99683)
Experimental: as §1

[8] = biological target: PKCzeta (Homo sapiens (Human), UniProt Q05513)
Experimental: as §1

[9] = biological target: EphA7 (Homo sapiens (Human), UniProt Q15375)
Experimental: as §1

[10] = biological target: PKCbetaII (Homo sapiens (Human), UniProt P05771)
Experimental: as §1

[11] = biological target: Pim-2 (Homo sapiens (Human), UniProt Q9P1W9)
Experimental: as §1

[12] = biological target: ZAP-70 (Homo sapiens (Human), UniProt P43403)
Experimental: as §1

[13] = biological target: EphA4 (Homo sapiens (Human), UniProt P54764)
Experimental: as §1

[14] = biological target: CK1gamma3 (Homo sapiens (Human), UniProt Q9Y6M4)
Experimental: as §1

[15] = biological target: IR Activated (Homo sapiens (Human), UniProt P06213)
Experimental: as §1

[16] = biological target: AKT2 (Homo sapiens (Human), UniProt P31751)
Experimental: as §1

[17] = biological target: MKNK2 (Homo sapiens (Human), UniProt Q9HBH9)
Experimental: as §1

[18] = biological target: PTK6 (Homo sapiens (Human), UniProt Q13882)
Experimental: as §1

[19] = biological target: Lck (Homo sapiens (Human), UniProt P06239)
Experimental: as §1

[20] = biological target: MAP4K2 (Homo sapiens (Human), UniProt Q12851)
Experimental: as §1

[21] = biological target: Mer (Homo sapiens (Human), UniProt Q12866)
Experimental: as §1

[22] = biological target: Plk3 (Homo sapiens (Human), UniProt Q9H4B4)
Experimental: as §1

[23] = biological target: Haspin (Homo sapiens (Human), UniProt Q8TF76)
Experimental: as §1

[24] = biological target: GSK3alpha (Homo sapiens (Human), UniProt P49840)
Experimental: as §1

[25] = biological target: STK33 (Homo sapiens (Human), UniProt Q9BYT3)
Experimental: as §1

[26] = biological target: EphB2 (Homo sapiens (Human), UniProt P29323)
Experimental: as §1

[27] = biological target: Axl (Homo sapiens (Human), UniProt P30530)
Experimental: as §1

[28] = biological target: Yes (Homo sapiens (Human), UniProt P07947)
Experimental: as §1

[29] = biological target: ULK3 (Homo sapiens (Human), UniProt Q6PHR2)
Experimental: as §1

[30] = biological target: EphA8 (Homo sapiens (Human), UniProt P29322)
Experimental: as §1

[31] = biological target: c-RAF (Homo sapiens (Human), UniProt P04049, Y340D/Y341D)
Experimental: as §1

[32] = biological target: eEF-2K (Homo sapiens (Human), UniProt O00418)
Experimental: as §1

[33] = biological target: Ret (Homo sapiens (Human), UniProt P07949)
Experimental: as §1

[34] = biological target: CLK2 (Homo sapiens (Human), UniProt P49760)
Experimental: as §1

[35] = biological target: mTOR (Homo sapiens (Human), UniProt P42345)
Experimental: as §1

[36] = biological target: PKCbetaI (Homo sapiens (Human), UniProt P05771)
Experimental: as §1

[37] = biological target: NEK2 (Homo sapiens (Human), UniProt P51955)
Experimental: as §1

[38] = biological target: PTK5 (Homo sapiens (Human), UniProt P42685)
Experimental: as §1

[39] = biological target: Hck (Homo sapiens (Human), UniProt P08631)
Experimental: as §1

Chain of MKNK2 (Q9HBH9 whole entry): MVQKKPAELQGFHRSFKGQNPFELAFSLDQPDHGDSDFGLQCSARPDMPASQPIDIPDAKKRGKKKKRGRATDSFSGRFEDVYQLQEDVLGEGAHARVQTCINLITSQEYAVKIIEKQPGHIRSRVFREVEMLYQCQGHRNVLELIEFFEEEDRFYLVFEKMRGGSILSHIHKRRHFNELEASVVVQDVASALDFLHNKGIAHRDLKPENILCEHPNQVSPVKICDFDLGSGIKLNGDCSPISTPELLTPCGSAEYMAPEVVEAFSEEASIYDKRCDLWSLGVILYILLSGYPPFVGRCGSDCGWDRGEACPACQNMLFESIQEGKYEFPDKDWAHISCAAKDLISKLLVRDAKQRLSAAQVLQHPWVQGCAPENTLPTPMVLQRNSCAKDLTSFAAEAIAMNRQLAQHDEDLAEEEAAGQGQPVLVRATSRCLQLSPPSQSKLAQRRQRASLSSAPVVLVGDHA
Chain of EphA8 (P29322 28-1005): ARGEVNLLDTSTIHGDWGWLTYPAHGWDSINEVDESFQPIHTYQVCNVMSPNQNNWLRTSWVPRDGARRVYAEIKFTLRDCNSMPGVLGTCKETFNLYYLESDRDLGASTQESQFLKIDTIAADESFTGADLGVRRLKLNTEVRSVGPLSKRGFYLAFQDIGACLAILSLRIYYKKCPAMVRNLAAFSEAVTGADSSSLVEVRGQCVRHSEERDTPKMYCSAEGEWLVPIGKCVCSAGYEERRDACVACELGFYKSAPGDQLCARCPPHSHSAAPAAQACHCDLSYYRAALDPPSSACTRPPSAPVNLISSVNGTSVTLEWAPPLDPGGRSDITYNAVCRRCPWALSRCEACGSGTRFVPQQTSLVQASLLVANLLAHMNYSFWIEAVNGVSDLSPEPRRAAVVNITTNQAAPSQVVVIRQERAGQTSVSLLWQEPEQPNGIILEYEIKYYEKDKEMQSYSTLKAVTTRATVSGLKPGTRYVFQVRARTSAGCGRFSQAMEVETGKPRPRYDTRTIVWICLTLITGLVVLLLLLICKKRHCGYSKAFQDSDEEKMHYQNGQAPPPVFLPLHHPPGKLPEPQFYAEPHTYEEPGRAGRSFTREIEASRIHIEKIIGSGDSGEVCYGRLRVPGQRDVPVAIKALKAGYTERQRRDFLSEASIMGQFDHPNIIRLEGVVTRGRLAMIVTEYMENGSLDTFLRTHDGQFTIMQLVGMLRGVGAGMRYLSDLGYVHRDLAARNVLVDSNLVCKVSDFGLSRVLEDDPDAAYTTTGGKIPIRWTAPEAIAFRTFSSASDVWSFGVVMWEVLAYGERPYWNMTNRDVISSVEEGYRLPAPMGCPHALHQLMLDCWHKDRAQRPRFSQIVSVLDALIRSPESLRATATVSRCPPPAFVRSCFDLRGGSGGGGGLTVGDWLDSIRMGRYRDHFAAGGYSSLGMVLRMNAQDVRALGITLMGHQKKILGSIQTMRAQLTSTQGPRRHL
Chain of Mer (Q12866 21-999): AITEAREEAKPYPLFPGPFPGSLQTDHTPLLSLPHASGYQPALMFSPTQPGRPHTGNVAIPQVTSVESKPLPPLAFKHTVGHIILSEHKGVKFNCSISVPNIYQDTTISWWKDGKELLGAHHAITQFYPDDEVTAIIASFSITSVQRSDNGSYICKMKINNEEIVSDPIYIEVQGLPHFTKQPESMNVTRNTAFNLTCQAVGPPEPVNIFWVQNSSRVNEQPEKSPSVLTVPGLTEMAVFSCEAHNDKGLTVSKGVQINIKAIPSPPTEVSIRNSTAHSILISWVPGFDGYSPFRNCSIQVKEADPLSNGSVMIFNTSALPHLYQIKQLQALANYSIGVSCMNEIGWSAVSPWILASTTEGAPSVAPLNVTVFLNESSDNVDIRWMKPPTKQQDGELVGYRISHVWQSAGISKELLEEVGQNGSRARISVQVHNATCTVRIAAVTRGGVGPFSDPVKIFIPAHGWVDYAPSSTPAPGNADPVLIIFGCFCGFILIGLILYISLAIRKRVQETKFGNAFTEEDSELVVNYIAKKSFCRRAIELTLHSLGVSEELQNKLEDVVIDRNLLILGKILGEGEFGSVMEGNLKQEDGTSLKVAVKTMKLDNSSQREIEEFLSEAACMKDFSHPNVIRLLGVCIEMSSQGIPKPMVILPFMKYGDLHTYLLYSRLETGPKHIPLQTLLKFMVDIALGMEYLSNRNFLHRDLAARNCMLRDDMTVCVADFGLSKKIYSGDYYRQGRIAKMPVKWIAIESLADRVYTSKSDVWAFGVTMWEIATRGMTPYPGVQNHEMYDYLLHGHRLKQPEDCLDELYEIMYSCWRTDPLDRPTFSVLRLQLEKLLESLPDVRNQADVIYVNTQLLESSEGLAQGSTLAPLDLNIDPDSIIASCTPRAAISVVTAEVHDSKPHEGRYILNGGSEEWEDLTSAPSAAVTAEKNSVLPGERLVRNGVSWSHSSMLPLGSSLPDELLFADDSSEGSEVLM
Chain of STK33 (Q9BYT3 whole entry): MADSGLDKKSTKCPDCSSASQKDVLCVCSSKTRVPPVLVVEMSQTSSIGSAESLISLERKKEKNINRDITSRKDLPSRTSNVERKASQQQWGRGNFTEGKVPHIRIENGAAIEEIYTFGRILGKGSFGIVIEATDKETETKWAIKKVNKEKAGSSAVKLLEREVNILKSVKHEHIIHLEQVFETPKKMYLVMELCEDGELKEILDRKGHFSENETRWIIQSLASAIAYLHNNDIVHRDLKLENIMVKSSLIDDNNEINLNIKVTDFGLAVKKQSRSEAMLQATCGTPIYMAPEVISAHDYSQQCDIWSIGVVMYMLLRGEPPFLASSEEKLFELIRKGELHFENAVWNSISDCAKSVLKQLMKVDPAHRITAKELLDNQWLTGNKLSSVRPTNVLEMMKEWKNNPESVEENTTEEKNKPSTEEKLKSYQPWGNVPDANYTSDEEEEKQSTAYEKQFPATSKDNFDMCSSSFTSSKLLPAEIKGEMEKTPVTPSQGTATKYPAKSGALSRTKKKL
Chain of NLK (Q9UBE8 whole entry): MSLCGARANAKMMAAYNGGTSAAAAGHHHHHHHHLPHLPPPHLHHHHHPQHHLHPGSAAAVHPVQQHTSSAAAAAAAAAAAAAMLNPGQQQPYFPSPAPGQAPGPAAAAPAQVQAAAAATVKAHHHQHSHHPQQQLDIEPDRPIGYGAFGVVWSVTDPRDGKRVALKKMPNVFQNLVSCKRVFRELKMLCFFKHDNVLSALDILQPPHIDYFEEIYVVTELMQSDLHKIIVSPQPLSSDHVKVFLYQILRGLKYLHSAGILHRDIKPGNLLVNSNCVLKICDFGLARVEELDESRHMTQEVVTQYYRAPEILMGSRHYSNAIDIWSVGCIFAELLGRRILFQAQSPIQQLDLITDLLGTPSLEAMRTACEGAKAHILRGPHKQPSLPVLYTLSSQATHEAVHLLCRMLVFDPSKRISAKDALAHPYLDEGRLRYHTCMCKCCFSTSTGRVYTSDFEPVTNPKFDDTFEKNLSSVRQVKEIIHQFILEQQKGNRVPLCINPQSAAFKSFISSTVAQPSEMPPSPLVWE
Chain of ZAP-70 (P43403 whole entry): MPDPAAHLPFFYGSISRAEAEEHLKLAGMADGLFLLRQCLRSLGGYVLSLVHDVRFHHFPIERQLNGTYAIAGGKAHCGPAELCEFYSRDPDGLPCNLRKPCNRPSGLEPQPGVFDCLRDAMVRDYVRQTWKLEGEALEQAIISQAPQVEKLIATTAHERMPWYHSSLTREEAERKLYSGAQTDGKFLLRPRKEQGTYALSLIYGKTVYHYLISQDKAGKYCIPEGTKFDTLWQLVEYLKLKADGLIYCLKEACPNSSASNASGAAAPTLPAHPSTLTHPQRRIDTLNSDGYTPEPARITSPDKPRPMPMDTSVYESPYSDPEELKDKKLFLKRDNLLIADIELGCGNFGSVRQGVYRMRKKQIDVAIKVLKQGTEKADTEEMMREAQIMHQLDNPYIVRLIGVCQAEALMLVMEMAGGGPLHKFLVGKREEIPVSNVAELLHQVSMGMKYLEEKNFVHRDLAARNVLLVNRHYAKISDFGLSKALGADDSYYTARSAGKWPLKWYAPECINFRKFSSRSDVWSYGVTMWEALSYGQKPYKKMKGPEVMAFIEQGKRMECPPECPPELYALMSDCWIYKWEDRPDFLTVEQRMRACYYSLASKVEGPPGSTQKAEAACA
Chain of PKCzeta (Q05513 whole entry): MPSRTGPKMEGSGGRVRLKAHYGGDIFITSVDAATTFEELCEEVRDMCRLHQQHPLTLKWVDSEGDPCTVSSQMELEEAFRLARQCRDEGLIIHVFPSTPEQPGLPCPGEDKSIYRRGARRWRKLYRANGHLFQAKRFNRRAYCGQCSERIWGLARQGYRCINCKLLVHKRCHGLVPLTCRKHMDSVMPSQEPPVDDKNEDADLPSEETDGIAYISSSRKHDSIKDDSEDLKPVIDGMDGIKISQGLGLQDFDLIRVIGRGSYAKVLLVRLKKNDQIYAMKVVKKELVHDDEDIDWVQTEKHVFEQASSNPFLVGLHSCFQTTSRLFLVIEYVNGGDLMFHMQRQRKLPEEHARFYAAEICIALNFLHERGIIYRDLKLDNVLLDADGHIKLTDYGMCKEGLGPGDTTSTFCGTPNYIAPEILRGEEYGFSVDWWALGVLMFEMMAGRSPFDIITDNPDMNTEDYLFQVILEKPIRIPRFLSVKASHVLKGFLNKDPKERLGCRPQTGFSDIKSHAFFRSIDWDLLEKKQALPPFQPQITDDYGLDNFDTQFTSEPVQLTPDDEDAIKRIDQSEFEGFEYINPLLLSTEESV
Chain of IR Activated (P06213 1005-1310 limits assumed): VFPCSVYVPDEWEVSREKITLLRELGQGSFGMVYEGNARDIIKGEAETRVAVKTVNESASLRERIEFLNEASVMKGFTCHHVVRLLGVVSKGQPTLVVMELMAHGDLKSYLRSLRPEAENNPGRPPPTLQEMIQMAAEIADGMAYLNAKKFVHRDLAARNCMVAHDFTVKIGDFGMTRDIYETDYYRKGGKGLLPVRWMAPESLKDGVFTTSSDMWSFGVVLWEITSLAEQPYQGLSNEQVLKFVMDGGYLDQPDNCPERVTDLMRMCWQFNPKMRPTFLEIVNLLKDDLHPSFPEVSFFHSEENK

COCc1ccc2c(c1)C(NC(=O)Nc1c(C)c(-c3cnn(C)c3)nn1-c1ccccc1)COC2 (stereo not drawn) [Example 32, 1-(1′,4-dimethyl-1-phenyl-1H,1′H-[3,4′-bipyrazol]-5-yl)-3-(6-(methoxymethyl)isochroman-4-yl)urea]
Avg. POC [1]: 103 POC | Avg. POC [2]: 125.5 POC | Avg. POC [3]: 128.5 POC | Avg. POC [4]: 113.5 POC | Avg. POC [5]: 117 POC | Avg. POC [6]: 105.5 POC | Avg. POC [7]: 116 POC | Avg. POC [8]: 115 POC | Avg. POC [9]: 100.5 POC | Avg. POC [10]: 100.5 POC | Avg. POC [11]: 116.5 POC | Avg. POC [12]: 124 POC | Avg. POC [13]: 103 POC | Avg. POC [14]: 102 POC | Avg. POC [15]: 111.5 POC | Avg. POC [16]: 121 POC | Avg. POC [17]: 99.5 POC | Avg. POC [18]: 100 POC | Avg. POC [19]: 104.5 POC | Avg. POC [20]: 119.5 POC | Avg. POC [21]: 104 POC | Avg. POC [22]: 103.5 POC | Avg. POC [23]: 94 POC | Avg. POC [24]: 112.5 POC | Avg. POC [25]: 115 POC | Avg. POC [26]: 96.5 POC | Avg. POC [27]: 119.5 POC | Avg. POC [28]: 114.5 POC | Avg. POC [29]: 92 POC | Avg. POC [30]: 109 POC | Avg. POC [31]: 101.5 POC | Avg. POC [32]: 115 POC | Avg. POC [33]: 100.5 POC | Avg. POC [34]: 105.5 POC | Avg. POC [35]: 94.5 POC | Avg. POC [36]: 80 POC | Avg. POC [37]: 108 POC | Avg. POC [38]: 104 POC | Avg. POC [39]: 98 POC

— patent publication US10351575B2, “Bicyclic urea, thiourea, guanidine and cyanoguanidine compounds useful for the treatment of pain” (Array BioPharma Inc., priority 2012, dated 2019)
